Assay [1] deals with T1, Human PKMYT1 (Homo sapiens, UniProt Q99640).
T1 construct: Human PKMYT1 75-362 was cloned as a TEV cleavable 6xHis fusion; 6xHis (TEV cleavable) (cleaved yes); made in house; host or cells: bacterial cells
T1 sequence (Q99640 75-362): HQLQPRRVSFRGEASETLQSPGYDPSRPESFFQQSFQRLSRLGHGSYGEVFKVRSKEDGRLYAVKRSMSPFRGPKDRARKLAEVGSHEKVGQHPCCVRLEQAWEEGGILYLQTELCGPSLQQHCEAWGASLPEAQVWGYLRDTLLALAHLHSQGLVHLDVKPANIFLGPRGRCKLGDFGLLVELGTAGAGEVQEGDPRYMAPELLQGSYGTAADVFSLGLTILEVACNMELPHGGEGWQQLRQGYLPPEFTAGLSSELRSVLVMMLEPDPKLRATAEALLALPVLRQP
The assay can be described thus: PKMYT1 biochemical ADP-Glo enzymatic assay. Particulars: ADP-Glo; 15 nM PKMYT1 kinase domain, 500 µM ATP, 60 minutes at 26° C.; banded. In short, it runs like this: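 IC50 derived from luminescence (ADP-Glo Max) after PKMYT1 kinase domain, 15 nM, turned over 500 µM ATP for 60 min at 26 °C. Buffer contained 10 mM MgCl2, 1 mM EGTA and 0.01% Brij-35 at pH 7.5.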

Assay [2] has as its target T2, WEE1 (Homo sapiens, UniProt P30291).
T2 construct: purchased Thermo Fisher PR7373A
As to the kind of experiment: Selectivity versus WEE1 assay (ADP-Glo enzymatic assay). The assay is classed as biochemical. Particulars: banded; for IC50: ADP-Glo, 15 nM WEE1, 60 minutes at 26° C.; for PKMYT1 vs. WEE1 selectivity: fold difference in selectivity for PKMYT1 over WEE1, ">N" = at least in this band but could be higher. In a few lines:
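Inhibition is measured as reduced ADP production, detected by luminescence with ADP-Glo, after enzyme (15 nM) and 30 µM ATP react for 60 min at 26° C in 1% DMSO-containing HEPES buffer, pH 7.5. Data are accepted only if replicate IC50s fall within 3-fold and r2 exceeds 0.9.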

The text below walks through data of patent US20260297042A1, “BIARYLAMIDE DERIVATIVES AND THEIR USE AS PKMYT1 INHIBITORS” (CANCER RESEARCH TECHNOLOGY LIMITED, priority 2023, published 2026).

T2 sequence (P30291 whole entry): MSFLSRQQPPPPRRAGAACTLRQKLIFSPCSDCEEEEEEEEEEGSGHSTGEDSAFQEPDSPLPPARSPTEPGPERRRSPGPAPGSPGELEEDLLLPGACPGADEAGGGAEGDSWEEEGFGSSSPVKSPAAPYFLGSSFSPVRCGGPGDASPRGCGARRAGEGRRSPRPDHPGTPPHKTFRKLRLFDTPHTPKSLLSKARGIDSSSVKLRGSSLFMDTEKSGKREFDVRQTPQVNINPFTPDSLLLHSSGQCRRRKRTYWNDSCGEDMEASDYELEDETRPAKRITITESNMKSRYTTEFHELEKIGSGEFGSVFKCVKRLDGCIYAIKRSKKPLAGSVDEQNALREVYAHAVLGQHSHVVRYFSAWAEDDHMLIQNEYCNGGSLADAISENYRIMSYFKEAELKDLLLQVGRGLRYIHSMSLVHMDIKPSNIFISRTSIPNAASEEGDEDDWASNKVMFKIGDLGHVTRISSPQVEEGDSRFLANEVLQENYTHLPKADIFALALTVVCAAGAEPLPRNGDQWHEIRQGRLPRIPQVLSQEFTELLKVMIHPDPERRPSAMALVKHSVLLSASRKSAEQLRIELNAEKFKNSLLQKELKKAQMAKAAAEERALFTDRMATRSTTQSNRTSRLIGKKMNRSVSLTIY

In assay [1], `Cc1ccc(O)c(C)c1NC(=O)c1sc(Nc2ccn(C)n2)nc1N` [BAA-219, 4-Amino-N-(3-hydroxy-2,6-dimethyl-phenyl)-2-[(1-methylpyrazol-3-yl)amino]thiazole-5-carboxamide] came in with a 50% inhibitory concentration (IC50) of 1 to 11 µM. In assay [2], the 50% inhibitory concentration (IC50) was in the range of 1 to 11 µM and the “PKMYT1 vs. WEE1 selectivity” value was “V (3-<10 fold)”.

`CNc1ncc(C(=O)Nc2c(C)ccc(O)c2C)s1` [BAA-221, N-(3-Hydroxy-2,6-dimethyl-phenyl)-2-(methylamino)thiazole-5-carboxamide] returned an IC50 in assay [1] of 0.05 to 1 µM. Also, in assay [2], the 50% inhibitory concentration (IC50) was above 11 µM and the “PKMYT1 vs. WEE1 selectivity” value is on record as “X (100-<1000 fold)”.

Consider `Cc1ccc(O)c(C)c1NC(=O)c1cnc(Nc2ccn(CC(=O)N3CCNCC3)n2)s1` [BAA-222, N-(3-hydroxy-2,6-dimethylphenyl)-2-((1-(2-oxo-2-(piperazin-1-yl)ethyl)-1H-pyrazol-3-yl)amino)thiazole-5-carboxamide], for which the IC50 in assay [1] is below 0.05 µM; in assay [2] it was above 11 µM. Besides, in assay [2], the “PKMYT1 vs. WEE1 selectivity” value is recorded as “X (100-<1000 fold)”.

In assay [1], `Cc1ccc(O)c(C)c1NC(=O)c1cnc(Nc2ccn(CC(=O)N3C[C@H]4C[C@@H]3CN4)n2)s1` [BAA-223, 2-((1-(2-((1R,4R)-2,5-diazabicyclo[2.2.1]heptan-2-yl)-2-oxoethyl)-1H-pyrazol-3-yl)amino)-N-(3-hydroxy-2,6-dimethylphenyl)thiazole-5-carboxamide] registered an IC50 below 0.05 µM. Moreover, in assay [2], the concentration for half-maximal inhibition (IC50) is above 11 µM and the “PKMYT1 vs. WEE1 selectivity” value is on record as “X (100-<1000 fold)”.

In assay [1], `Cc1ccc(O)c(C)c1NC(=O)c1cnc(Nc2ccn(CC(=O)N3CCC4(CCNC4)CC3)n2)s1` [BAA-225, N-(3-hydroxy-2,6-dimethylphenyl)-2-((1-(2-oxo-2-(2,8-diazaspiro[4.5]decan-8-yl)ethyl)-1H-pyrazol-3-yl)amino)thiazole-5-carboxamide] showed an IC50 below 0.05 µM. In assay [2], the IC50 was above 11 µM and the “PKMYT1 vs. WEE1 selectivity” value is on record as “X (100-<1000 fold)”.

Consider `Cc1ccc(O)c(C)c1NC(=O)c1cnc(Nc2ccn(CC(=O)NCC3CCNCC3)n2)s1` [BAA-226], for which the IC50 in assay [1] was below 0.05 µM; in assay [2] it was above 11 µM. For the same compound, in assay [2], the “PKMYT1 vs. WEE1 selectivity” value is given as “X (100-<1000 fold)”.

As for `Cc1ccc(O)c(C)c1NC(=O)c1cnc(Nc2ccn(CC(=O)N3C[C@@H](C)N[C@@H](C)C3)n2)s1` [BAA-227, 2-((1-(2-((3R,5S)-3,5-dimethylpiperazin-1-yl)-2-oxoethyl)-1H-pyrazol-3-yl)amino)-N-(3-hydroxy-2,6-dimethylphenyl)thiazole-5-carboxamide], in assay [1], the IC50 is below 0.05 µM. In addition, in assay [2], the 50% inhibitory concentration (IC50) was above 11 µM and the “PKMYT1 vs. WEE1 selectivity” value was “X (100-<1000 fold)”.

Regarding `Cc1ccc(O)c(C)c1NC(=O)c1cnc(Nc2ccn(CC(=O)NCCN3CCNCC3)n2)s1` [BAA-228, N-(3-hydroxy-2,6-dimethylphenyl)-2-((1-(2-oxo-2-((2-(piperazin-1-yl)ethyl)amino)ethyl)-1H-pyrazol-3-yl)amino)thiazole-5-carboxamide], the half-maximal inhibitory concentration (IC50) in assay [1] is below 0.05 µM; in assay [2], above 11 µM. The “PKMYT1 vs. WEE1 selectivity” value in assay [2] is given as “X (100-<1000 fold)”.

Compound `CCN(C(=O)C(C)(C)C)c1ccc(C)c(Nc2ncc(C(=O)Nc3c(C)ccc(O)c3C)s2)n1` [BAA-234, 2-((6-(N-ethylpivalamido)-3-methylpyridin-2-yl)amino)-N-(3-hydroxy-2,6-dimethylphenyl) thiazole-5-carboxamide] returned an IC50 in assay [1] below 0.05 µM. Also, in assay [2], the IC50 was 1 to 11 µM and the “PKMYT1 vs. WEE1 selectivity” value is on record as “X (100-<1000 fold)”.

Consider `Cc1cc(Nc2ncc(C(=O)Nc3c(C)ccc(O)c3C)s2)n(CC(C)C)n1` [BAA-238, N-(3-hydroxy-2,6-dimethylphenyl)-2-((1-isobutyl-3-methyl-1H-pyrazol-5-yl)amino)thiazole-5-carboxamide], for which the IC50 in assay [1] is below 0.05 µM. Moreover, in assay [2], the IC50 is above 11 µM and the “PKMYT1 vs. WEE1 selectivity” value is “Y (1000-5000 fold)”.

For the compound `Cc1ccc(O)c(C)c1NC(=O)c1cnc(Nc2cc(C)n(CCC(N)=O)n2)s1` [BAA-239, 2-((1-(3-amino-3-oxopropyl)-5-methyl-1H-pyrazol-3-yl)amino)-N-(3-hydroxy-2,6-dimethylphenyl)thiazole-5-carboxamide], the IC50 in assay [1] is 0.05 to 1 µM; in assay [2] it was 1 to 11 µM. In assay [2], the “PKMYT1 vs. WEE1 selectivity” value was “W (10-<100 fold)”.

For the compound `Cc1cc(Nc2ncc(C(=O)Nc3c(C)ccc(O)c3C)s2)n(CCC(N)=O)n1` [BAA-240, 2-((1-(3-amino-3-oxopropyl)-3-methyl-1H-pyrazol-5-yl)amino)-N-(3-hydroxy-2,6-dimethylphenyl) thiazole-5-carboxamide], the 50% inhibitory concentration (IC50) in assay [1] lay in the range of 0.05 to 1 µM. Moreover, in assay [2], the IC50 was above 11 µM and the “PKMYT1 vs. WEE1 selectivity” value is given as “X (100-<1000 fold)”.

On to `Cc1ccc(O)c(C)c1NC(=O)c1cnc(Nc2cc(C)n(CCC(=O)O)n2)s1` [BAA-241, 3-(3-((5-((3-hydroxy-2,6-dimethylphenyl)carbamoyl)thiazol-2-yl)amino)-5-methyl-1H-pyrazol-1-yl)propanoic acid], for which the concentration for half-maximal inhibition (IC50) in assay [1] was in the range of 0.05 to 1 µM. Also, in assay [2], the half-inhibitory concentration (IC50) is above 11 µM and the “PKMYT1 vs. WEE1 selectivity” value is reported as “X (100-<1000 fold)”.

In turn, `COc1ccc2cc(Nc3ncc(C(=O)Nc4c(C)ccc(O)c4C)s3)nn2c1` [BAA-242, N-(3-Hydroxy-2,6-dimethylphenyl)-2-((6-methoxypyrazolo[1,5-a]pyridin-2-yl)amino)thiazole-5-carboxamide] returned an IC50 in assay [1] of 0.05 to 1 µM. In addition, in assay [2], the half-inhibitory concentration (IC50) is above 11 µM and the “PKMYT1 vs. WEE1 selectivity” value is on record as “Y (1000-5000 fold)”.

`Cc1ccc(O)c(C)c1NC(=O)c1cnc(Nc2c3ccncc3nn2C)s1` [BAA-244, N-(3-hydroxy-2,6-dimethylphenyl)-2-((2-methyl-2H-pyrazolo[3,4-c]pyridin-3-yl)amino)thiazole-5-carboxamide] had an IC50 in assay [1] below 0.05 µM. In assay [2], the half-maximal inhibitory concentration (IC50) was in the range of 1 to 11 µM and the “PKMYT1 vs. WEE1 selectivity” value is listed as “X (100-<1000 fold)”.

`Cc1ccc(O)c(C)c1NC(=O)c1cnc(Nc2cc(C3CC3)n(C)n2)s1` [BAA-245, 2-((5-cyclopropyl-1-methyl-1H-pyrazol-3-yl)amino)-N-(3-hydroxy-2,6-dimethylphenyl)thiazole-5-carboxamide]: in assay [1], the 50% inhibitory concentration (IC50) is below 0.05 µM. In assay [2], the IC50 was above 11 µM and the “PKMYT1 vs. WEE1 selectivity” value is recorded as “Y (1000-5000 fold)”.

`Cc1ccc(O)c(C)c1NC(=O)c1cnc(Nc2nn(C)c3c2CCCC3)s1` [BAA-246, N-(3-hydroxy-2,6-dimethylphenyl)-2-((1-methyl-4,5,6,7-tetrahydro-1H-indazol-3-yl)amino)thiazole-5-carboxamide] showed an IC50 in assay [1] of 1 to 11 µM. For the same compound, in assay [2], the half-inhibitory concentration (IC50) was above 11 µM and the “PKMYT1 vs. WEE1 selectivity” value is “W (10-<100 fold)”.

`Cc1ccc(O)c(C)c1NC(=O)c1cnc(Nc2nn(C)c3c2CCC3)s1` [BAA-247, N-(3-hydroxy-2,6-dimethylphenyl)-2-((1-methyl-1,4,5,6-tetrahydrocyclopenta[c]pyrazol-3-yl)amino)thiazole-5-carboxamide]: the IC50 in assay [1] fell in the range of 0.05 to 1 µM. Besides, in assay [2], the IC50 is above 11 µM and the “PKMYT1 vs. WEE1 selectivity” value is recorded as “Y (1000-5000 fold)”.

In turn, `Cc1ccc(O)c(C)c1NC(=O)c1cnc(Nc2c3cnccc3nn2C)s1` [BAA-248, N-(3-hydroxy-2,6-dimethylphenyl)-2-((2-methyl-2H-pyrazolo[4,3-c]pyridin-3-yl)amino)thiazole-5-carboxamide] had an IC50 in assay [1] below 0.05 µM. In assay [2], the half-maximal inhibitory concentration (IC50) is 1 to 11 µM and the “PKMYT1 vs. WEE1 selectivity” value was “X (100-<1000 fold)”.

Take `Cn1ccc(Nc2ncc(C(=O)Nc3c(F)ccc(O)c3F)s2)n1` [BAA-249, N-(2,6-difluoro-3-hydroxyphenyl)-2-((1-methyl-1H-pyrazol-3-yl)amino)thiazole-5-carboxamide]: the IC50 in assay [1] is 0.05 to 1 µM; in assay [2] it was above 11 µM. In assay [2], the “PKMYT1 vs. WEE1 selectivity” value is given as “X (100-<1000 fold)”.

Turning to `Cc1ccc(O)c(C)c1NC(=O)c1cnc(Nc2cc3n(n2)CCN(C)C3=O)s1` [BAA-250, N-(3-hydroxy-2,6-dimethylphenyl)-2-((5-methyl-4-oxo-4,5,6,7-tetrahydropyrazolo[1,5-a]pyrazin-2-yl)amino)thiazole-5-carboxamide], the IC50 is below 0.05 µM in assay [1] and above 11 µM in assay [2]. Moreover, the “PKMYT1 vs. WEE1 selectivity” value in assay [2] was “X (100-<1000 fold)”.

For `Cc1ccc(O)c(C)c1NC(=O)c1cnc(Nc2cc(CO)n(C)n2)s1` [BAA-251, N-(3-hydroxy-2,6-dimethylphenyl)-2-((5-(hydroxymethyl)-1-methyl-1H-pyrazol-3-yl)amino)thiazole-5-carboxamide], the IC50 in assay [1] was below 0.05 µM. In assay [2], the IC50 fell in the range of 1 to 11 µM and the “PKMYT1 vs. WEE1 selectivity” value was “X (100-<1000 fold)”.
